# In US20020137929A1, “1 - (3-heterocyclylphenyl) isothiourea, -isourea, -guanidine and -amidine herbicidal agents” (Intellectual Property Department, BASF Aktiengesellschaft, priority 1998, published 2002):
# Tests used:
# CASOB (Sicklepod) = experiment: Postemergence herbicidal evaluation; assay type: in vivo, Cassia obtusifolia; conditions: postemergence
# Summary of the method: (§1)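 Visual 0–9 rating versus control (stand, vigor, malformation, size, chlorosis, overall appearance), taken four to five weeks post-spray. Two-week-old seedlings received roughly 0.0156–0.500 kg/ha active in acetone/water (50/50) with 0.5% TWEEN 20 via nozzle at 40 psi.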
# [1] = test system: CHEAL (Lambsquarters, Common); experiment: Postemergence herbicidal evaluation; assay type: in vivo, Chenopodium album; conditions: postemergence
# Summary of the method: as §1
# ECHCG (Barnyardgrass) = experiment: Postemergence herbicidal evaluation; assay type: in vivo, Echinochloa crus-galli; conditions: postemergence
# Summary of the method: as §1
# ORYSAT (Rice, Tebonnet) [2] = experiment: Postemergence herbicidal evaluation; assay type: in vivo, Oryza sativa, (L.) Tebonnet; conditions: postemergence
# Summary of the method: as §1
# GALAP (Galium) = experiment: Preemergence herbicidal evaluation; assay type: in vivo, Galium aparine; conditions: rated 4-5 weeks after treatment
# Summary of the method: (§2)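 Seeds were planted in potting soil in cups, then sprayed preemergence with the test compound in aqueous acetone at about 0.0156 to 0.500 kg per hectare. Cups were kept under greenhouse conditions and visually rated 4–5 weeks after treatment on a 0–9 scale against an untreated control.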
# SETVI (Foxtail, Green) = experiment: Preemergence herbicidal evaluation; assay type: in vivo, Setaria viridis; conditions: rated 4-5 weeks after treatment
# Summary of the method: as §2
# [3] = test system: GLXMAW (Soybean, Williams); experiment: Preemergence herbicidal evaluation; assay type: in vivo, Glycine max, (L.) Merr. cv Williams; conditions: rated 4-5 weeks after treatment
# Summary of the method: as §2
# ORYSAT (Rice, Tebonnet) [4] = experiment: Preemergence herbicidal evaluation; assay type: in vivo, Oryza sativa, (L.) Tebonnet; conditions: rated 4-5 weeks after treatment
# Summary of the method: as §2
# [5] = test system: TRZAWR (Wheat, Winter, cv Riband); experiment: Preemergence herbicidal evaluation; assay type: in vivo, Triticum aestivum; conditions: rated 4-5 weeks after treatment
# Summary of the method: as §2
# ZEAMX (Corn, Field) = experiment: Preemergence herbicidal evaluation; assay type: in vivo, Zea mays; conditions: rated 4-5 weeks after treatment
# Summary of the method: as §2
# CYPIR (Rice Flatsedge) = experiment: Preemergence weed control under flooded paddy conditions; assay type: in vivo, Cyperus iria; conditions: rated 3-4 weeks after treatment
# Summary of the method: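 Seeds or propagules sown in top 0.5 cm of silt loam soil, flooded 1.5 to 3 cm above surface throughout. Compound in 50/50 v/v aqueous/acetone pipetted into flood water at about 0.0313 to 0.500 kg/ha. Visual 0-9 rating versus control after three to four weeks in greenhouse.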
# MOOVA (Monochoria) = experiment: as above; assay type: in vivo, Monochoria vaginalis; conditions: rated 3-4 weeks after treatment
# Summary of the method: (§3)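 Visual injury scored 0-9 against control three to four weeks post-treatment, greenhouse-grown. Application: acetone/water (50/50) solutions dosed directly into flood water (1.5-3 cm over silt loam, planted top 0.5 cm), roughly 0.0313 to 0.500 kg/ha active ingredient.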
# [6] = test system: SAGPY (Arrowhead (Pygmaea)); experiment: as above; assay type: in vivo, Sagittaria pygmaea; conditions: rated 3-4 weeks after treatment
# Summary of the method: as §3
smiles,measurement,setting,value
"CN1C(=O)C(CC(=O)NO)SC1=Nc1cc(-n2c(=O)cc(C(F)(F)F)n(C)c2=O)c(F)cc1Cl (stereo not drawn) [Compound 162, 2-{{2-Chloro-5-[3,6-dihydro-3-methyl-2,6-dioxo-4-(trifluoromethyl)-1(2H)-pyrimidinyl]-4-fluorophenyl}imino}-3-methyl-4-oxo-5-thiazolidineacetohydroxamic acid]",herbicidal rating CASOB,CASOB (Sicklepod); rate 0.0156 kg/ha,0.0
same,herbicidal rating CASOB,CASOB (Sicklepod); rate 0.0313 kg/ha,0.0
same,herbicidal rating CASOB,CASOB (Sicklepod); rate 0.0625 kg/ha,2.0
same,herbicidal rating CHEAL,[1]; rate 0.0156 kg/ha,9.0
same,herbicidal rating CHEAL,[1]; rate 0.0313 kg/ha,9.0
same,herbicidal rating CHEAL,[1]; rate 0.0625 kg/ha,9.0
same,herbicidal rating ECHCG,ECHCG (Barnyardgrass); rate 0.0156 kg/ha,0.0
same,herbicidal rating ECHCG,ECHCG (Barnyardgrass); rate 0.0313 kg/ha,0.0
same,herbicidal rating ECHCG,ECHCG (Barnyardgrass); rate 0.0625 kg/ha,0.0
same,herbicidal rating ORYSAT,"ORYSAT (Rice, Tebonnet) [2]; rate 0.0156 kg/ha",0.5
same,herbicidal rating ORYSAT,"ORYSAT (Rice, Tebonnet) [2]; rate 0.0313 kg/ha",1.5
same,herbicidal rating ORYSAT,"ORYSAT (Rice, Tebonnet) [2]; rate 0.0625 kg/ha",1.5
same,Preemergence herbicidal rating GALAP,GALAP (Galium); 0.0156 kg/ha,0.0
same,Preemergence herbicidal rating GALAP,GALAP (Galium); 0.0313 kg/ha,0.0
same,Preemergence herbicidal rating GALAP,GALAP (Galium); 0.0625 kg/ha,0.0
same,Preemergence herbicidal rating GALAP,GALAP (Galium); 0.1250 kg/ha,3.0
same,Preemergence herbicidal rating GALAP,GALAP (Galium); 0.2500 kg/ha,3.0
same,Preemergence herbicidal rating SETVI,"SETVI (Foxtail, Green); 0.0156 kg/ha",9.0
same,Preemergence herbicidal rating SETVI,"SETVI (Foxtail, Green); 0.0313 kg/ha",9.0
same,Preemergence herbicidal rating SETVI,"SETVI (Foxtail, Green); 0.0625 kg/ha",9.0
same,Preemergence herbicidal rating SETVI,"SETVI (Foxtail, Green); 0.1250 kg/ha",9.0
same,Preemergence herbicidal rating SETVI,"SETVI (Foxtail, Green); 0.2500 kg/ha",9.0
same,Preemergence herbicidal rating GLXMAW,[3]; 0.0156 kg/ha,2.0
same,Preemergence herbicidal rating GLXMAW,[3]; 0.0313 kg/ha,2.0
same,Preemergence herbicidal rating GLXMAW,[3]; 0.0625 kg/ha,2.0
same,Preemergence herbicidal rating GLXMAW,[3]; 0.1250 kg/ha,5.0
same,Preemergence herbicidal rating GLXMAW,[3]; 0.2500 kg/ha,9.0
same,Preemergence herbicidal rating ORYSAT,"ORYSAT (Rice, Tebonnet) [4]; 0.0156 kg/ha",2.0
same,Preemergence herbicidal rating ORYSAT,"ORYSAT (Rice, Tebonnet) [4]; 0.0313 kg/ha",3.0
same,Preemergence herbicidal rating ORYSAT,"ORYSAT (Rice, Tebonnet) [4]; 0.0625 kg/ha",5.0
same,Preemergence herbicidal rating ORYSAT,"ORYSAT (Rice, Tebonnet) [4]; 0.1250 kg/ha",6.0
same,Preemergence herbicidal rating ORYSAT,"ORYSAT (Rice, Tebonnet) [4]; 0.2500 kg/ha",8.0
same,Preemergence herbicidal rating TRZAWR,[5]; 0.0156 kg/ha,0.0
same,Preemergence herbicidal rating TRZAWR,[5]; 0.0313 kg/ha,3.0
same,Preemergence herbicidal rating TRZAWR,[5]; 0.0625 kg/ha,7.0
same,Preemergence herbicidal rating TRZAWR,[5]; 0.1250 kg/ha,7.0
same,Preemergence herbicidal rating TRZAWR,[5]; 0.2500 kg/ha,9.0
same,Preemergence herbicidal rating ZEAMX,"ZEAMX (Corn, Field); 0.0156 kg/ha",6.0
same,Preemergence herbicidal rating ZEAMX,"ZEAMX (Corn, Field); 0.0313 kg/ha",7.0
same,Preemergence herbicidal rating ZEAMX,"ZEAMX (Corn, Field); 0.0625 kg/ha",9.0
same,Preemergence herbicidal rating ZEAMX,"ZEAMX (Corn, Field); 0.1250 kg/ha",9.0
same,Preemergence herbicidal rating ZEAMX,"ZEAMX (Corn, Field); 0.2500 kg/ha",9.0
same,"herbicidal effect rating, CYPIR",CYPIR (Rice Flatsedge); 0.0313 kg/ha,5.0
same,"herbicidal effect rating, CYPIR",CYPIR (Rice Flatsedge); 0.0625 kg/ha,6.0
same,"herbicidal effect rating, CYPIR",CYPIR (Rice Flatsedge); 0.1250 kg/ha,6.0
same,"herbicidal effect rating, CYPIR",CYPIR (Rice Flatsedge); 0.2500 kg/ha,9.0
same,"herbicidal effect rating, MOOVA",MOOVA (Monochoria); 0.0313 kg/ha,7.0
same,"herbicidal effect rating, MOOVA",MOOVA (Monochoria); 0.0625 kg/ha,7.0
same,"herbicidal effect rating, MOOVA",MOOVA (Monochoria); 0.1250 kg/ha,7.0
same,"herbicidal effect rating, MOOVA",MOOVA (Monochoria); 0.2500 kg/ha,9.0
same,"herbicidal effect rating, SAGPY",[6]; 0.0313 kg/ha,0.0
same,"herbicidal effect rating, SAGPY",[6]; 0.0625 kg/ha,3.0
same,"herbicidal effect rating, SAGPY",[6]; 0.1250 kg/ha,3.0
same,"herbicidal effect rating, SAGPY",[6]; 0.2500 kg/ha,3.0
